According to patent publication US8796268B2, “Heteroaryls and uses thereof” (Millennium Pharmaceuticals, Inc., priority 2010, dated 2014):

What was measured:
Human PI3K alpha = molecular target: T1, Human PI3K alpha (Homo sapiens, UniProt P42336); test: Human PI3K alpha enzyme assay (HTRF); assay type: biochemical; conditions: read-out: PI3Kalpha IC50
T1 construct: His (N); host or cells: SF9 insect cells (baculovirus)
Excerpt: (§1) The catalytic subunits of PI3Ks are cloned into either pDEST8(p110 alpha) or pDEST10(p110beta, p110delta, and p110gamma) as N-terminal His tagged fusion proteins using the Gateway system (Invitrogen, catalog#11804-010 for pDEST8 and 11806-015 for pDEST10). The sequences are verified before recombinant protein expression using the Baculovirus Expression System with Gateway® Technology. The accession numbers for the subunits are as follows: • p110 alpha (GB:U79143) • p110beta (GB: S67334) • p110delta (GB: U86453) • p110gamma (GB: X83368) • The regulatory subunits of PI3Ks are cloned into pDEST8 as un-tagged protein using the Gateway system (Catalog#11804-010). The sequences are verified before recombinant protein expression using the Baculovirus Expression System with Gateway® Technology. The accession numbers for the subunits are as following: • p85 alpha (GB: BC030815) • p101(GB: AB028925) • VPS34 (accession number GB:BC033004) is cloned into pDEST20—Thombin as N-terminal GST tagged fusion proteins using the Gateway system (Invitrogen, catalog#11804-013). The sequences are verified before recombinant protein expression using the Baculovirus Expression System with Gateway® Technology.
(§2) For expression of the p110 complexes, the p85 (MOI of 4) is co-infected with p110 alpha, beta, and delta respectively (1MOI) in SF9 cells and harvested at 60 hours post co-infection. P110 gamma was infected at 1 MOI and harvested at 60 hours post infection.
(§3) For purification, PI3Ks are purified by Ni-NTA Agarose (Qiagen #30250) followed by Mono Q 10/100 GL (Ge Healthcare #17-5167-01). VPS34 is purified by Glutathione Sepharose 4 Fast Flow (GE Healthcare #17-5132-03) followed by HiTrap Q (GE Healthcare #17-1153-01).
1) Human PI3K alpha enzyme assay method
(§4) 0.5 uL compounds in DMSO are added to wells of a 384 well microtitre plate (Corning 3575). At room temperature: 10 ul PI3K reaction buffer (50 mM Hepes, 5 mM DTT, 150 mM NaCl, 10 mM beta-glycerophosphate, 10 mM MgCl2, 0.25 mM sodium cholate and 0.001% CHAPS, pH 7.00) containing ATP (25 uM, Promega) is added followed immediately by 10 ul PI3K reaction buffer containing di-C8 P1(4,5)P2 (3.5 uM, CellSignals) and PI3Kalpha (0.4875 nM, Millennium Protein Sciences Group) and the mixture is incubated with shaking at room temperature for 30 minutes. Then 5 ul PI3K stop mix (50 mM Hepes, 5 mM DTT, 150 mM NaCl, 0.01% Tween-20, 15 mM EDTA and 25 nM biotin-PI(3,4,5)P3 (Echelon) is added to quench the reaction followed immediately by addition of 5 ul HTRF detection mix (50 mM Hepes, 5 mM DTT, 150 mM NaCl, 0.01% Tween-20, 40 mM KF, 1.0 nM GST:GRP-1 PH domain (Millennium Protein Sciences Group), 15 nM Streptavidin-XL (CisBio) and 0.375 nM anti-GST Eu++ antibody (CisBio) at pH 7.00). The plates are then incubated for 1 hour at room temperature with shaking and then read on a BMG PheraStar Plus reader.
(§5) For the assay methods described above, test compound percent inhibition, at various concentrations, is calculated relative to control (DMSO and EDTA) treated samples. Compound concentration versus percent inhibition curves are fitted to generate IC50 values. One skilled in the art will appreciate that the values generated either as percentage inhibition at a single concentration or IC50 values are subject to experimental variation.

Human PI3K beta = molecular target: T2, Human PI3K beta (Homo sapiens, UniProt P42338); test: Human PI3K beta enzyme assay (HTRF); assay type: biochemical; conditions: read-out: PI3 Kbeta IC50
T2 construct: His (N); host or cells: SF9 insect cells (baculovirus)
Excerpt: as §1, §2, §3, §4
2) Human PI3K beta, delta and gamma isoforms are tested using the procedure described for PI3K alpha above but with the following changes: PI3K beta (5.25 nM), PI3K delta (0.75 nM) and PI3K gamma (5 nM). All isoforms supplied by Millennium Protein Science Group.
as §5

T2 sequence (P42338 whole entry): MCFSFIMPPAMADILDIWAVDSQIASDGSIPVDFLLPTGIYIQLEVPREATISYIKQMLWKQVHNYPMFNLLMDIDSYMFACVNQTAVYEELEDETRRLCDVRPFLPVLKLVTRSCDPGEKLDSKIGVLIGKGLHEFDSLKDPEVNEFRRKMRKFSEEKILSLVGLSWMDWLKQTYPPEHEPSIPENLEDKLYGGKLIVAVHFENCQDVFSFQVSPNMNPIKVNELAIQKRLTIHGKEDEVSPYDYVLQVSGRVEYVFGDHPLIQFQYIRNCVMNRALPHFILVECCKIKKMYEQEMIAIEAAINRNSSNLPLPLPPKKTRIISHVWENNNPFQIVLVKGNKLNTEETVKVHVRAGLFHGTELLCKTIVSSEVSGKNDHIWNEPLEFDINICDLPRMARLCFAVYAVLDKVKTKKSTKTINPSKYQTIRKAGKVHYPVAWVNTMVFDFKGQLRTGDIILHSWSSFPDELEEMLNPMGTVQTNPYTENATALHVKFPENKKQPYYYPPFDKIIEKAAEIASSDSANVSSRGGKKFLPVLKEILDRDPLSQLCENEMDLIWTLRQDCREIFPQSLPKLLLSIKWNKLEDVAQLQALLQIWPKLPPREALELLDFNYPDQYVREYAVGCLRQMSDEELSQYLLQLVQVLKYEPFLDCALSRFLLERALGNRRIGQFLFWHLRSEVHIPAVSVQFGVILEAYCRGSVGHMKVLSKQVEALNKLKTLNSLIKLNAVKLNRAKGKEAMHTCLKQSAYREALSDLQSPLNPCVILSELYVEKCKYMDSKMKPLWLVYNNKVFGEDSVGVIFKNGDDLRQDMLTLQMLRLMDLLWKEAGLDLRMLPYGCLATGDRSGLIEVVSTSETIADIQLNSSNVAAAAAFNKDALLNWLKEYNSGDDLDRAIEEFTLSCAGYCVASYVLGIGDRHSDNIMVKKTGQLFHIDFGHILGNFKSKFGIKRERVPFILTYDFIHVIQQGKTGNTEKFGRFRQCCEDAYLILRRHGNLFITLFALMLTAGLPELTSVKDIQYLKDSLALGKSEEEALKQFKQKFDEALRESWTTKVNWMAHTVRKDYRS
T2 sequence (P27986 whole entry partner): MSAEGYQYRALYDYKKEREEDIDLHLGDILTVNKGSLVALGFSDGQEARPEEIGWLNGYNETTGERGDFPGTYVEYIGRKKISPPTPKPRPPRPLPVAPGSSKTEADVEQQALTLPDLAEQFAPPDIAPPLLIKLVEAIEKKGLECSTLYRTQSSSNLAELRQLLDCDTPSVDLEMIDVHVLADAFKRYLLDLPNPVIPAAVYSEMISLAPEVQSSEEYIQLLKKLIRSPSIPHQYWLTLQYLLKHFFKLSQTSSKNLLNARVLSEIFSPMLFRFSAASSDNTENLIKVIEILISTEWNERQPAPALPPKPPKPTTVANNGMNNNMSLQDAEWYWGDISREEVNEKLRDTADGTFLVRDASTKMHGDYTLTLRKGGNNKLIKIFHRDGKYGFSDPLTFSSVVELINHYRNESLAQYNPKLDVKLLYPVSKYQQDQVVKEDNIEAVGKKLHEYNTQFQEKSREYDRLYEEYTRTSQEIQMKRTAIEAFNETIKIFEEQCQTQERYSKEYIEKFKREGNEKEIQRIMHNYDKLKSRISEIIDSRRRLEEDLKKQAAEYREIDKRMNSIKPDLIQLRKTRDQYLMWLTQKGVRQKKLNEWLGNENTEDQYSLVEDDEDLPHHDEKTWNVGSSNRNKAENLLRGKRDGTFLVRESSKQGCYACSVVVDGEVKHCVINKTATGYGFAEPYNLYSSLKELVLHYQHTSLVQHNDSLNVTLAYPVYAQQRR
T1 sequence (P42336 whole entry): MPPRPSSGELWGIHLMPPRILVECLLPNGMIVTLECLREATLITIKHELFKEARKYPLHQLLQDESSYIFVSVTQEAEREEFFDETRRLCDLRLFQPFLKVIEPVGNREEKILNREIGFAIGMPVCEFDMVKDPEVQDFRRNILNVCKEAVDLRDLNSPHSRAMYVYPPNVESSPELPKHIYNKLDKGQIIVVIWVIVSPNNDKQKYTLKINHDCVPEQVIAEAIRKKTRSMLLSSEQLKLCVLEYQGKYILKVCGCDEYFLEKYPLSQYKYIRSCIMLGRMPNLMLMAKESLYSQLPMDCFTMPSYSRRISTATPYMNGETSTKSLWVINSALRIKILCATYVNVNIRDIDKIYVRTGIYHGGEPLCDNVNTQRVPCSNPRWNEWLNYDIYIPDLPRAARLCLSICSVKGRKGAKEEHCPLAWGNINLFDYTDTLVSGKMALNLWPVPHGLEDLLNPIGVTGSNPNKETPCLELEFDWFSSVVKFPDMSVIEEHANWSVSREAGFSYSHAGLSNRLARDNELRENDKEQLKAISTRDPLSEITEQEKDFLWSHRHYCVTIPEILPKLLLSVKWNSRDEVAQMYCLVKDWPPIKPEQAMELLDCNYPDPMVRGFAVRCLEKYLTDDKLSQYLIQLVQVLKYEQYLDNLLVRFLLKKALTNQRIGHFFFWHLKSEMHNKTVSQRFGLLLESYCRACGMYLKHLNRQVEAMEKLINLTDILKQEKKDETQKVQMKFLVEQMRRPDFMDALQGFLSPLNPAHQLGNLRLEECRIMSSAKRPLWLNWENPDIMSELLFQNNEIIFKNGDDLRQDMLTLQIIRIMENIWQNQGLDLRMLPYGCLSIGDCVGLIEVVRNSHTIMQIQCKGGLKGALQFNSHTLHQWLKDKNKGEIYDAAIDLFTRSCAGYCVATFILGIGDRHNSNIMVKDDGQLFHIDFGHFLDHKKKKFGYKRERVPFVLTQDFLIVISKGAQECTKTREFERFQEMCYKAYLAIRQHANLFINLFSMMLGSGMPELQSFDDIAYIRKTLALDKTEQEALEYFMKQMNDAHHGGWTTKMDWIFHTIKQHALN
T1 sequence (P27986 whole entry partner): as the sequence (P27986 whole entry partner) above

Compound | IC50 (Human PI3K alpha) | IC50 (Human PI3K beta)
Clc1ccc(Cc2nc(-c3ccncc3)sc2-c2ccc[nH]2)cc1 [Compound 22, 4-(4-chlorobenzyl)-2-(pyridin-4-yl)-5-(1H-pyrrol-2-yl)thiazole] | > 1 µM | > 1 µM
Nc1nccc(-c2cc(C(O)c3ccc(Cl)cc3)c(-c3nnc[nH]3)s2)n1 (centres unmarked) [Compound 23] | > 1 µM | 0.1 to 1 µM
OC(c1ccc(Cl)cc1)c1cc(-c2ccncc2Cl)sc1-c1nc[nH]n1 (centres unmarked) [Compound 25] | > 1 µM | 0.1 to 1 µM
O[C@@H](c1ccc(Cl)cc1)c1cc(-c2ccnc(F)c2)sc1-c1nnc[nH]1 [Compound 26] | > 1 µM | 0.1 to 1 µM
Nc1cc(-c2nc(Cc3ccc(Cl)cc3)c(-c3ncn[nH]3)s2)ccn1 [Compound 27] | > 1 µM | 0.1 to 1 µM
CC(C)NC(c1ccc(Cl)cc1)c1cc(-c2ccncc2)sc1-c1nnc[nH]1 (centres unmarked) [Compound 33] | > 1 µM | 0.1 to 1 µM
Cc1noc(C)c1-c1cc(C(O)c2ccc(Cl)cc2)c(-c2nnc[nH]2)s1 (centres unmarked) [Compound 34] | > 1 µM | 0.1 to 1 µM
N#Cc1c(-c2ccncc2)sc(C(=O)O)c1Cc1ccc(Cl)cc1 [Compound 36] | > 1 µM | < 0.1 µM
Fc1cc(-c2nc(Cc3ccc(Cl)cc3)c(-c3nnc[nH]3)s2)ccn1 [Compound 37] | > 1 µM | 0.1 to 1 µM
Clc1ccc(Cc2nc(-c3ccnnc3)sc2-c2nnc[nH]2)cc1 [Compound 39] | > 1 µM | 0.1 to 1 µM
Cc1cc(-c2cc([C@H](O)c3ccc(Cl)cc3)c(-c3nnc[nH]3)s2)ccn1 [Compound 43] | > 1 µM | < 0.1 µM
CN(C)[C@H](c1ccc(Cl)cc1)c1cc(-c2ccncc2)sc1-c1nnc[nH]1 [Compound 44] | > 1 µM | < 0.1 µM
O[C@H](c1ccc(Cl)cc1)c1cc(-c2ccnc(F)c2)sc1-c1nnc[nH]1 [Compound 45] | > 1 µM | < 0.1 µM
Cc1noc(C)c1-c1nc(Cc2ccc(Cl)cc2)c(-c2nnc[nH]2)s1 [Compound 46] | > 1 µM | 0.1 to 1 µM
Clc1ccc(Cc2nc(-c3ccnc(Cl)c3)sc2-c2nnc[nH]2)cc1 [Compound 47, 4-(4-chlorobenzyl)-2-(2-chloropyridin-4-yl)-5-(4H-1,2,4-triazol-3-yl)thiazole] | > 1 µM | 0.1 to 1 µM
OCCNc1cc(-c2cc(C(O)c3ccc(Cl)cc3)c(-c3nnc[nH]3)s2)ccn1 (centres unmarked) [Compound 49, 2-({4-[4-[(4-chlorophenyl)(hydroxy)methyl]-5-(4H-1,2,4-triazol-3-yl)-2-thienyl]pyridin-2-yl}amino)ethanol] | > 1 µM | > 1 µM
Clc1ccc(C(c2cc(-c3ccncc3)sc2-c2nnc[nH]2)N2CCC2)cc1 (centres unmarked) [Compound 51] | > 1 µM | < 0.1 µM
OC(c1ccc(Cl)cc1)c1cc(-c2ccncc2)sc1-c1nnc[nH]1 (centres unmarked) [Compound 52] | > 1 µM | < 0.1 µM
O[C@@H](c1ccc(Cl)cc1)c1cc(-c2ccnnc2)sc1-c1nnc[nH]1 [Compound 55] | > 1 µM | > 1 µM

More lines, now with the values ahead:

IC50 (Human PI3K alpha) | IC50 (Human PI3K beta) | Compound
> 1 µM | 0.1 to 1 µM | Clc1ccc(Cc2nc(-c3ccncc3)sc2-c2ncc[nH]2)cc1 [Compound 15, 4-(4-chlorobenzyl)-5-(1H-imidazol-2-yl)-2-(pyridin-4-yl)thiazole]
> 1 µM | < 0.1 µM | OC(c1ccc(Cl)cc1)c1cc(-c2ccncc2F)sc1-c1nnc[nH]1 (centres unmarked) [Compound 16]
> 1 µM | 0.1 to 1 µM | COc1cc(-c2cc(C(O)c3ccc(Cl)cc3)c(-c3nnc[nH]3)s2)ccn1 (centres unmarked) [Compound 17]
> 1 µM | > 1 µM | Cc1cc(-c2nc(Cc3ccc(Cl)cc3)c(-c3nc[nH]n3)s2)ccn1 [Compound 18, 4-(4-Chlorobenzyl)-2-(2-methylpyridin-4-yl)-5-(4H-1,2,4-triazol-3-yl)thiazole]
0.1 to 1 µM | < 0.1 µM | COc1ccc(CNCc2ccn3nc(C)c(-c4nc(Cc5ccc(Cl)cc5)c(-c5nnc[nH]5)s4)c3c2)c(OC)c1 [Compound 20]
> 1 µM | < 0.1 µM | OC(c1ccc(Cl)cc1)c1cc(-c2ccnc(F)c2)sc1-c1nnc[nH]1 (centres unmarked) [Compound 21, (4-chlorophenyl)[5-(2-fluoropyridin-4-yl)-2-(4H-1,2,4-triazol-3-yl)-3-thienyl]methanol]
0.1 to 1 µM | > 1 µM | CC(=O)Nc1cc(-c2nc(Cc3ccc(C)cc3)c(-c3ncc[nH]3)s2)ccn1 [Compound 24]
0.1 to 1 µM | 0.1 to 1 µM | OC(c1ccc(Cl)cc1)c1cc(-c2ccnc(-n3ccnc3)c2)sc1-c1nnc[nH]1 (centres unmarked) [Compound 28]
< 0.1 µM | > 1 µM | CC(=O)Nc1cc(-c2nc(NC(=O)c3ccccc3)c(-c3ncc[nH]3)s2)ccn1 [Compound 29, N-(2-(2-acetamidopyridin-4-yl)-5-(1H-imidazol-2-yl)thiazol-4-yl)benzamide]
0.1 to 1 µM | < 0.1 µM | O[C@H](c1ccc(Cl)cc1)c1cc(-c2ccnc(Cl)c2)sc1-c1nnc[nH]1 [Compound 30]
0.1 to 1 µM | < 0.1 µM | Cc1nn2ccc(CN(CCN)Cc3ccncc3)cc2c1-c1nc(Cc2ccc(Cl)cc2)c(-c2nnc[nH]2)s1 [Compound 31]
0.1 to 1 µM | 0.1 to 1 µM | Cc1nn2ccc(CNCc3ccccc3)cc2c1-c1nc(Cc2ccc(Cl)cc2)c(-c2nnc[nH]2)s1 [Compound 32]
0.1 to 1 µM | 0.1 to 1 µM | Cc1nn2ccc(CNC(=N)N)cc2c1-c1nc(Cc2ccc(Cl)cc2)c(-c2nnc[nH]2)s1 [Compound 35, N-({3-[4-(4-chlorobenzyl)-5-(4H-1,2,4-triazol-3-yl)-1,3-thiazol-2-yl]-2-methylpyrazolo[1,5-a]pyridin-5-yl}methyl)guanidine]
0.1 to 1 µM | 0.1 to 1 µM | Cc1nn2ccc(CNCCCN)cc2c1-c1nc(Cc2ccc(Cl)cc2)c(-c2nnc[nH]2)s1 [Compound 38]
< 0.1 µM | < 0.1 µM | CC(=O)Nc1cc(-c2cc(C(O)c3ccc(Cl)cc3)c(-c3nnc[nH]3)s2)ccn1 (centres unmarked) [Compound 41]
0.1 to 1 µM | 0.1 to 1 µM | OC(c1ccc(Cl)cc1)c1cc(-c2ccnc3ccccc23)sc1-c1nnc[nH]1 (centres unmarked) [Compound 42]
0.1 to 1 µM | 0.1 to 1 µM | N#Cc1cc(-c2cc([C@@H](O)c3ccc(Cl)cc3)c(-c3nnc[nH]3)s2)ccn1 [Compound 48]
< 0.1 µM | < 0.1 µM | Cc1nn2ccc(CNC(=O)c3cnccn3)cc2c1-c1nc(Cc2ccc(Cl)cc2)c(-c2nnc[nH]2)s1 [Compound 50, N-({3-[4-(4-chlorobenzyl)-5-(4H-1,2,4-triazol-3-yl)-1,3-thiazol-2-yl]-2-methylpyrazolo[1,5-a]pyridin-5-yl}methyl)pyrazine-2-carboxamide]
0.1 to 1 µM | 0.1 to 1 µM | Clc1ccc(Cc2nc(-c3ccnc4[nH]ccc34)sc2-c2ncn[nH]2)cc1 [Compound 53]
0.1 to 1 µM | 0.1 to 1 µM | Cc1nn2ccc(CNCCN)cc2c1-c1nc(Cc2ccc(Cl)cc2)c(-c2nnc[nH]2)s1 [Compound 54]
0.1 to 1 µM | 0.1 to 1 µM | CC(=O)Nc1cc(-c2nc(Cc3ccc(Cl)cc3)c(-c3ncn[nH]3)s2)ccn1 [Compound 56, N-{4-[4-(4-chlorobenzyl)-5-(4H-1,2,4-triazol-3-yl)-1,3-thiazol-2-yl]pyridin-2-yl}acetamide]
